According to PMC11325555, “Interaction of Bisphenol A and Its Analogs with Estrogen and Androgen Receptor from Atlantic Cod (Gadus morhua)” (Environmental Science & Technology, 2024):

What was measured:
[1] = molecular target: T1, Atlantic cod estrogen receptor alpha (gmEra) LBD (Gadus morhua, UniProt U5ILH7); experiment: Luciferase reporter gene assay, gmEra agonism (estrogenic activity) in transfected COS-7 cells; conditions: luciferase reporter gene assay
T1 sequence (U5ILH7 170-455): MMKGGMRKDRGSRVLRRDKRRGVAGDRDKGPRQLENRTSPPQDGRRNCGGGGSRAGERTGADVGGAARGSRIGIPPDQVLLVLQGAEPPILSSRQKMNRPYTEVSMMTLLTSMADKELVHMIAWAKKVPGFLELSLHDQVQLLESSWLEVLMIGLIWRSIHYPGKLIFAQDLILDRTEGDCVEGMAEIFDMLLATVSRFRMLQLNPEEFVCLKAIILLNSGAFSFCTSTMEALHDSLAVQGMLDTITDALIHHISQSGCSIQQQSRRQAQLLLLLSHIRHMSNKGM
Method: (§1) Ligand activation of gmEra and gmAra was studied with a luciferase reporter gene assay in COS-7 cells transiently transfected with the pCMX-GAL4(DBD)-gmEra(LBD) or pCMX-GAL4(DBD)-gmAra(LBD) plasmid by using the TransIT-LT1 reagent (TransIT-LT1 Transfection Reagent, Mirus). Cells were seeded into 96-well plates (5000 cells/well) and incubated for 24 h before cotransfection with the plasmid mixture (100 ng/well). The plasmid mixture contained GAL4-UAS luciferase reporter plasmid (tk-(MH100)x4 luc), the pCMX-GAL4(DBD)-gmEra(LBD) or pCMX-GAL4(DBD)-gmAra(LBD) receptor plasmids (2:1 reporter:receptor plasmid mass ratio), and a plasmid constitutively producing the β-galactosidase enzyme used for normalization of transfection efficiency (pCMV- β-Gal). […] The maximum DMSO/methanol concentrations in the exposure wells were 0.5% (v/v) in DMEM medium without phenol red (Sigma-Aldrich). After exposure, cells were lysed, and luciferase and beta-galactosidase activities were measured as luminescence and absorbance (420 nm) after the addition of luciferin and ONPG substrates, respectively, using an Enspire Multimode plate reader (PerkinElmer, Waltham, Massachusetts, USA).
Luciferase reporter gene assays were established with COS-7 cells transiently producing the LBD of gmEra (Figure S1) for evaluating the estrogenic potential of 12 bisphenols.
COS-7 cells transiently transfected with gmEra-LBD were exposed to EE2 (open circles), BPA (black circles), and 11 different BPA analogs (red squares and as indicated) at increasing concentrations. Responses are presented as mean fold activation in luciferase activity in comparison to solvent-exposed cells ± SEM from three independent experiments with three technical replicates (n = 9). The dose–response curves were created using nonlinear regression and the four parameter logistic fit in Graphpad Prism v.9. For comparison, the dose–response curve of BPA (black line) is indicated together with each individual BP tested (red line). *p < 0.05 versus solvent control by one-way ANOVA and Dunnett’s multiple comparison post hoc test.

[2] = molecular target: T1, Atlantic cod estrogen receptor alpha (gmEra) LBD; experiment: Luciferase reporter gene assay, gmEra antagonism (antiestrogenic activity), coexposure with 3 nM EE2; type: cell-based; conditions: coexposure with EE2 (3 nM, EC20)
Method: as §1
To investigate potential antiestrogenic effects, COS-7 cells transiently expressing gmEra LBD were exposed to the 12 bisphenols in binary mixtures with a fixed concentration of EE2 (3 nM, corresponding to EC20) (Figure 2 and Table 1).
(§2) The dose–response curves were created using nonlinear regression and the four-parameter logistic fit in Graphpad Prism v.9. *p < 0.05 versus solvent control by ANOVA and Dunnett’s multiple comparison post hoc test.

[3] = molecular target: T2, Atlantic cod androgen receptor alpha (gmAra) LBD (Gadus morhua, UniProt D5FIC7); experiment: Luciferase reporter gene assay, gmAra antagonism (antiandrogenic activity), coexposure with 5 nM testosterone; type: cell-based; conditions: BPs 0.003–50 μM with 5 nM testosterone
T2 sequence (D5FIC7 409-718): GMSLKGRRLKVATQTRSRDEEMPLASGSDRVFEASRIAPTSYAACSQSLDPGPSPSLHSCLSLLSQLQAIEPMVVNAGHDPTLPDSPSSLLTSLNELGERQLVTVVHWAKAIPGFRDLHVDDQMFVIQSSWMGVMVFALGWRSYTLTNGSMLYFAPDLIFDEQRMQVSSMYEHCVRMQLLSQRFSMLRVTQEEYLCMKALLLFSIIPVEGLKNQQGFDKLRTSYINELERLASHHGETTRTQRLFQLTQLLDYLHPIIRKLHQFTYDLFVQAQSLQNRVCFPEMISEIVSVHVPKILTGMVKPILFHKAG
Method: as §1, §2

[4] = tested on: Atlantic cod precision-cut liver slices (PCLS); experiment: PCLS viability, lactate dehydrogenase (LDH) assay; type: cell-based, Atlantic cod (Gadus morhua); conditions: 1µM; 96 h exposure
Method: To monitor the viability of the liver tissue, the release of LDH to the medium was quantified with an LDH Cytotoxicity Detection kit (Roche, Basel, Switzerland) according to the manufacturer’s protocol. Briefly, 50 μL of PCLS medium collected at the end of 96 h exposure was pipetted in triplicates into a clear 96-well plate, 50 μL of provided reagent mixture with the substrate was added, and the mixture was incubated for 10 min at room temperature in the dark. Absorbance was measured at 490 nm using an EnSpire plate reader (PerkinElmer, Waltham, USA), with 650 nm reference measurement. The LDH activity was normalized to the liver tissue weight, and statistical analysis was performed as described above for the ELISA data.
Figure S3. Assessment of PCLS tissue viability in BP-treated and DMSO control groups. Data points represent mean ± SD of fold-changes (normalized to DMSO) in LDH activity (in the culture medium) per mg of tissue (n = 5-6). For each compound, increasing concentrations used are arranged bottom up vertically (y-axis), […]
starting with DMSO control. […]
in comparisons between the different concentrations and the corresponding DMSO control. One treatment group […]
Figure S4. Sequence alignment of ligand binding domain of gmEra and hsERa. Alignment was constructed in Jalview using Clustal with default settings. […]

SMILES | gmEra activation, result in words [1] | antiestrogenic effect on gmEra, result in words [2] | effect on testosterone-mediated gmAra activity, result in words [3] | LDH activity in PCLS culture medium vs DMSO control, result in words [4]
CC(C)(c1ccc(OCC2CO2)cc1)c1ccc(OCC2CO2)cc1 (centres unmarked) [BADGE] | did not activate gmEra | no antiestrogenic effects |  | 
Oc1ccc(C2(c3ccc(O)cc3)c3ccccc3-c3ccccc32)cc1 [BPFL] | did not activate gmEra |  | significant increases in gmAr activity | significantly lower LDH activity
